Data set [1] concerns HCT-116 cells. In words: in vivo tumor xenograft, HCT-116 in CD-1 nude mice. The conditions noted are these: per os 618 mg/kg daily from the day after the tumor reach; vs control (corn oil). As to the method: In vivo tumor xenograft experiments. Male and female CD-1 nude mice were obtained from Charles River Laboratories (Montreal, QC, Canada). All studies involving mice were approved by the institutional animal care committee. Human A549 or HCT-116 xenografts were established in 4-week-old CD-1 nude mice. Mice were subcutaneously inoculated with 0.2 ml of a solution of 1×10^6 A549 or HCT-116 cells on the right flank. Mice were randomly assigned into 2 groups, control (untreated) and compound 1, 5 or 6 treated (n=6 per group). […] Tumor volumes (V) were calculated using the formula: V=(a×b2)/2, where “a” is the largest superficial diameter and “b” the smallest.

Data set [2] has as its system HCT116 human colon cancer cell line. In words: cell growth assay (trypan blue cell count) on HCT116. The format is cell-based. The settings on record: HCT-116, 48 h, read-out: growth inhibition of the cancer cells. As for the experimental part:
(§1) The A549 and HCT-116 cells were maintained in RPMI 1640 or McCoy's 5A (Wisent, St-Bruno, QC, Canada) containing 10% FBS and 10 units/ml penicillin, 100 μg/ml streptomycin. Cells were grown in a 5% CO2 incubator at 37° C. Cells were untreated or treated with SCF compounds
(§2) A predefined number of either A549 or HCT-116 cells were allowed to grow in 24 wells plates (1×10^4 cells/well) for 3 days until cells reached 70% confluence. Then, cells were starved in RPMI or McCoy's 5A medium without FBS for 8 h. Then, the culture medium was replaced with RPMI or McCoy's 5A+0.2% FBS and 3 μM of test compounds were added to each well. Culture media were changed every 24 h and cells were treated for 48 h. After 48, the medium was removed from the culture plates and 0.05% trypsin-EDTA was used to detach the cells from the surface of the culture plates. The harvested cells were counted, both the viable and dead ones, using a Countess Automated Cell Counter (Invitrogen Inc.). Briefly, for each condition an appropriated cell dilution was prepared from the harvested cells and an aliquot was mixed with an equal volume of 0.4% trypan blue, and 10 μl was transferred into each side of a Countess™ chamber slide. All concentrations tested were performed in triplicata and were representative of 5 independent experiments.

The conditions of data set [3]: human, in vivo.
Method: Controlled amount of boiled pasta was eaten after the 4 h time point. An initial blood sample (400 μl) was collected using a lancet at a fingertip into heparin tubes followed by samples at 1, 2, 3, 4, 5, 6, 7 and 8 hour after ingestion. Plasma was separated and immediately analysed for fatty acid composition.
The relative bioavailability of fatty acids from composition 2 compared to fish oil is calculated with the formula:
The AUC (calculates area under the curve for concentration vs. time data) is calculated using linear trapezoidal rule. […] The relative bioavailability of compound 1 and compound 5 is calculated with the same formula:
Data set [4] relates to A549 cells. Description: in vivo tumor xenograft, A549 in CD-1 nude mice. The settings on record: per os 618 mg/kg daily from the day after cell inoculation; vs control (corn oil). As to the method:
In vivo tumor xenograft experiments. Male and female CD-1 nude mice were obtained from Charles River Laboratories (Montreal, QC, Canada). All studies involving mice were approved by the institutional animal care committee. Human A549 or HCT-116 xenografts were established in 4-week-old CD-1 nude mice. Mice were subcutaneously inoculated with 0.2 ml of a solution of 1×10^6 A549 or HCT-116 cells on the right flank. Mice were randomly assigned into 2 groups, control (untreated) and compound 1, 5 or 6 treated (n=6 per group). Compound 1, 5 or 6 were administrated per os (618 mg/kg) daily following cell inoculation. Tumor volumes (V) were calculated using the formula: V=(a×b2)/2, where “a” is the largest superficial diameter and “b” the smallest.

Data set [5] relates to A549 human lung cancer cell line. In words: cell growth assay (trypan blue cell count) on A549. The format is cell-based. The conditions noted are these: 48 h, read-out: growth inhibition of the cancer cells. As for the experimental part:
as §1, §2

SMILES strings stand for the structures.

What is called inhibition is the share of the control response that was lost under treatment. For the compound `CC/C=C\C/C=C\C/C=C\C/C=C\C/C=C\CCCC(=O)OCC(O)CO` (stereo not shown) [compound 6], in data set [1], the “tumor progression (tumor volume)” value is “tumor progression was immediately stopped and tumor volume slightly decrease over time”. The inhibition at 3 µM in data set [2] is more than 50%.
With `CC/C=C\C/C=C\C/C=C\C/C=C\C/C=C\CCCCCC(=O)OCC(O)CO` (stereo not shown) [compound 1], in data set [1], the “tumor progression (tumor volume)” value is “tumor progression was immediately stopped and tumor volume significantly decrease over time”. The inhibition at 3 µM in data set [2] is more than 50%. Also, in data set [3], the “relative bioavailability of compound 1 compared to compound 5” value was determined as 2.20.
With `CC/C=C\C/C=C\C/C=C\C/C=C\C/C=C\C/C=C\CCC(=O)OCC(O)CO` (stereo not shown) [compound 5], the “tumor progression (tumor volume)” value in data set [4] was “tumor progression was significantly reduced”. The inhibition at 3 µM in data set [5] was more than 50%.

(Values after patent US9233915B2, “Polyunsaturated fatty acid monoglycerides, derivatives, and uses thereof” (SCF PHARMA INC., priority 2007, dated 2016).)
